The record followed here is publication PMC9002265, “A New Series of Strigolactone Analogs Derived From Cinnamic Acids as Germination Inducers for Root Parasitic Plants” (Frontiers in Plant Science, 2022).

Each structure is given as a SMILES string.

One series concerns the target T1, ShHTL7 (Striga hermonthica, UniProt A0A0M3PNA2).
T1 sequence (A0A0M3PNA2 1-271): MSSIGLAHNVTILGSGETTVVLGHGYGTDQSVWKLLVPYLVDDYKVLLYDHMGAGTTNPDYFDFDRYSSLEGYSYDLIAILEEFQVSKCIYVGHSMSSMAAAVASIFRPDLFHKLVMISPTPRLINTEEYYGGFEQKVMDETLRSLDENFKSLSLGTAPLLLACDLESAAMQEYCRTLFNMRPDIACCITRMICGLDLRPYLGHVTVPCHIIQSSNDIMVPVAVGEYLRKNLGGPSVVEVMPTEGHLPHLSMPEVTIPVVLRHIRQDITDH
Description: YLG assay (inhibition of YLG hydrolysis) with recombinant ShHTL7. The class given is biochemical. The settings on record: 1 h incubation, read-out: IC50 in YLG assay. The procedure:
(§1) The ORF fragment of ShHTL6 and ShHTL7 was synthesized using IDT gBlock service. The PCR amplified ShHTL6 and ShHTL7 fragment was digested with Nco I and EcoR I, and the digested product was introduced into a modified pET28 vector with an N-terminal His8 tag. Escherichia coli BL21(DE3) was used for protein expression. The overnight culture (12 ml) was added to a fresh LB medium (1.2 L) containing kanamycin (50 mg/L) at 37°C. After OD600 reached 0.8, 0.1 mM IPTG was added and the cell was further incubated at 16°C for 21 h. The culture medium was centrifuged at 3700 g and the pellet was stored at −20°C until use. The pellet was resuspended and sonicated in a lysis buffer (50 mM Tris buffer (pH 8.0) containing 500 mM NaCl, 10 mM 2-mercaptoethanol, and 10% glycerol). The supernatant was purified by Ni Sepharose TM 6 Fast Flow (500 μl, Cytiva). After washing with the washing buffer (50 mM Tris buffer (pH 8.0) containing 500 mM NaCl and 20 mM imidazole), The bound protein was eluted with elution buffer (50 mM Tris buffer (pH 8.0) containing 500 mM NaCl and 200 mM imidazole). The eluate was concentrated using VIVASPIN Turbo 15 (Sartorius), and the concentration was adjusted to 5 mg/ml. The purified protein was aliquoted to the appropriate volume, immediately frozen in liquid nitrogen, and stored at −80°C until use.
(§2) After YLG was incubated with recombinant ShHTL6 or ShHTL7 for 1 h, the fluorescence was measured by spectraMax i5 (Molecular Devices) at excitation by 480 nm and detection by 520 nm. IC50 values were calculated using the online tool Quest GraphTM IC50 Calculator (AAT Bioquest, Inc., United States; https://www.aatbio.com/tools/ ic50-calculator).

The target of a further series is T2, ShHTL6 (Striga hermonthica, UniProt A0A0M4AUV4).
T2 sequence (A0A0M4AUV4 1-271): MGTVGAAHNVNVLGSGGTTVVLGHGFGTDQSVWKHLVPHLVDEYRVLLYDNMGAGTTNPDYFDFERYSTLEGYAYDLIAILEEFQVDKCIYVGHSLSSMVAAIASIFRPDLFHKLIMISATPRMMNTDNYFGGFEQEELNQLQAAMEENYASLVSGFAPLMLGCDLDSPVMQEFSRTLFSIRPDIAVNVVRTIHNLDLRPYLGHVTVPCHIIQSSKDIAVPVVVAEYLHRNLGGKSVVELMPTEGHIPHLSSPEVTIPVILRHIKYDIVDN
The series is described as follows: YLG assay (inhibition of YLG hydrolysis) with recombinant ShHTL6. The series is classed as biochemical. The procedure: as §1, §2

The next series has as its system Orobanche minor seeds. The series is described as follows: Germination assay, Orobanche minor seeds. To be noted: O. minor seeds. The series is classed as in vivo. The procedure: Orobanche minor seeds were washed with 70% EtOH, and then sonicated for 4 min in 1% sodium hypochlorite solution containing 0.2% Tween-20. The seeds were then washed 10 times with sterile water and suspended in 0.1% agar solution. The seeds were loaded onto 5-mm glass fiber filter disks (20–70 seeds/disk) and were conditioned at 23°C for 15 days. Each disk was transferred into a 96-well plate. A 30 μl aliquot of test chemical solution was added to the well. For the germination assay, the chemical solutions were prepared by 1,000 times dilution from each acetone stock solution with water (final acetone concentration was 0.1%). GR24 solution (0.1% acetone) and sterile water (0.1% acetone) was used as positive and negative control, respectively. The 96 well plates were incubated for 5 days at 23°C and the number of total seeds and germinated seeds was counted.

Series [1] in a line: Time course monitoring of degradation in hydroponic culture. To be noted: 1 μM, within 1 week, pH 5.7, LC-MS/MS. The class given is physicochemical. The procedure: t-CASL1, c-CASL1, PPASL, and GR5 were separately added to 15 ml tubes containing hydroponic culture. The final concentration of the test compounds is 1 μM and acetone was adjusted to 0.01% (v/v). These solutions were incubated under the same conditions as branching assay. After incubation for 0, 5, 24 72, or 168 h, 495 μl of hydroponic culture containing test compounds was collected and 5 μl of NAA solution (10 μM) was added as an internal standard. The solution was extracted with ethyl acetate. The ethyl acetate phase was dried up under the nitrogen gas and dissolved in acetonitrile. These samples were subjected to LC–MS/MS analysis equipped with reverse-phase column (CORTECS UPLC Phenyl 1.6 μm, ϕ2.1 × 75 mm; Waters). Each peak area of test chemicals and internal standard was calculated, and the remaining percentage of teste chemicals was calculated. At the same time, the degradation products of test compounds (CA or PPA) were also analyzed. Detailed information about the analytical condition was described in Supplementary Table 1.

For the molecule `CC1=CC(OC(=O)/C=C\c2ccccc2)OC1=O` (stereo not shown) [c-CASL1], the IC50 on ShHTL7 was determined as 590 nM; on ShHTL6, 900 nM. Further, the “germination-inducing activity, times stronger than the corresponding trans isomer” value in the series with Orobanche minor seeds was “approximately 10 times”. Further, in series [1], the “loss (non-enzymatic degradation) in hydroponic culture medium” value is roughly 40%.

For orientation: IC50 means the midpoint of a concentration-inhibition curve.
